The source of these data is patent US6303625A, “Triazolopyridines for the treatment of thrombosis disorders” (Ortho-McNeil Pharmaceutical, Inc., priority 1999, dated 2001).

One assay concerns the target GPIIb/IIIa (Homo sapiens, UniProt P05106+P08514). In words: In vitro solid phase purified glycoprotein IIb/IIIa binding assay (fibrinogen binding). The conditions noted are these: for inhibition at 50 µM: read-out: Fibrinogen Binding % Inh. (50 μM). On the procedure:
In Vito Solid Phase Purified Glycoprotein IIB/IIA Binding Assay
The plate was covered and incubated overnight at 4° C. The GPIIb/IIa solution was discarded and 150 μl of 5% BSA was added and incubated at RT for 1-3 h. The plate was washed extensively with modified Tyrodes buffer. Biotinylated fibrinogen (25 μl/well) at 2×final concentration was added to the wells that contain the test compounds (25 μl/well). The plate was covered and incubated at RT for 2-4 h. Twenty minutes prior to incubation completion, one drop of Reagent A (Vecta Stain ABC Horse Radish Peroxidase kit, Vector Laboratories, Inc.) and one drop Reagent B were added with mixing to 5 mL modified Tyrodes buffer mix and let stand. The ligand solution was discarded and the plate washed (5×200 μl/well) with modified Tyrodes buffer. Vecta Stain HRP-Biotin-Avidin reagent (50 μl/well, as prepared above) was added and incubated at RT for 15 min. The Vecta Stain solution was discarded and the wells washed (5×200 μl/well) with modified Tyrodes buffer. Developing buffer (10 mL of 50 mM citrate/phosphate buffer @ pH 5.3, 6 mg o-phenylenediamine, 6 μl 30% H2 O2; 50 μl/well) was added and incubated at RT for 3-5 min, and then 2N H2 SO4 (50 μl/well) was added. The absorbance was read at 490 nm.

In the next assay the test system is gel-filtered platelets. As to the kind of experiment: In vitro inhibition of thrombin-induced gel-filtered platelet aggregation. It counts as cell-based. The note with it: Homo sapiens; for inhibition at 50 µM: read-out: Platelet Aggregation % Inh. (50 μM). On the procedure:
In Vitro Inhibition of Thrombin-Induced Gel-Filtered Platelet Aggression Assay
The percentage of platelet aggregation is calculated as an increase in light transmission of compound-treated platelet concentrate vs. control-treated platelet concentrate. Human blood was obtained from drug free, normal donors into tubes containing […] sodium citrate. Platelet rich plasma (PRP) was collected by centrifugation of whole blood at 200×g for 10 min at 25° C. The PRP (5 mL) was gel filtered through Sepharose 2B (bed volume 50 mL), and the platelet count was adjusted to 2×10^7 platelets per sample. The following constituents were added to a siliconized cuvette: concentrated platelet filtrate and Tyrode's buffer (0.14M NaCl, 0.0027M KCl, 0.012M NaHCO3,0.76 mM Na2 HPO4, 0.0055M glucose, 2 mg/mL BSA and 5.0 mM HEPES @ pH 7.4) in an amount equal to 350 μl, 50 μl of 20 mM calcium and 50 μl of the test compound. Aggregation was monitored in a BIODATA aggregometer for the 3 min following the addition of agonist (thrombin 50 μl of 1 unit/mL).

In assay [1] the test system is ADP-induced ex vivo platelet aggregation. As to the kind of experiment: Ex vivo dog study: duration of >50% inhibition of ADP-induced ex vivo platelet aggregation. Format: in vivo. The conditions noted are these: for Intravenous Dosing Duration (of >50% inhibition of ADP-induced ex vivo platelet aggregation): 0.1 mpk; for Oral Dosing Duration (of >50% inhibition of ADP-induced ex vivo platelet aggregation): 1 mpk. On the procedure: Adult mongrel dogs (8-13 kg) were anesthetized with sodium pentobarbital (35 mg/kg, i.v.) and artificially respired. Arterial blood pressure and heart rate were measured using a Millar catheter-tip pressure transducer inserted in a femoral artery. Another Millar transducer was placed in the left ventricle (LV) via a carotid artery to measure LV end diastolic pressure and indices of myocardial contractility. A lead II electrocardiogram was recorded from limb electrodes. Catheters were placed in a femoral artery and vein to sample blood and infuse drugs, respectively. Responses were continuously monitored using a Modular Instruments data acquisition system.
Arterial blood samples (5-9 ml) were withdrawn into tubes containing 3.8% sodium citrate to prepare platelet rich plasma (PRP) and to determine effects on coagulation parameters: prothrombin time (PT) and activated partial thromboplastin time (APTT). Separate blood samples (1.5 ml) were withdrawn in EDTA to determine hematocrit and cell counts (platelets, RBC's and white cells). Template bleeding times were obtained from the buccal surface using a symplate incision devise and Whatman filter paper.
Aggregation of PRP was performed using a BioData aggregometer. Aggregation of whole blood used a Chronolog impedance aggregometer. PT and APTT were determined on either a BioData or ACL 3000+ coagulation analyzer. Cells were counted with a Sysmex K-1000.
Compounds were solubilized in a small volume of dimethylformamide (DMF) and diluted with saline to a final concentration of 10% DMF. Compounds were administered by the intravenous route with a Harvard infusion pump. Doses was administered over a 15 min interval at a constant rate of 0.33 ml/min. Data were obtained after each dose and in 30 min intervals following the end of drug administration. Oral doses were administered as aqueous solutions via syringe.

Structures are written as SMILES. Some results are limits rather than exact numbers.

GPIIb/IIIa, sequence (P08514 32-887 limits assumed): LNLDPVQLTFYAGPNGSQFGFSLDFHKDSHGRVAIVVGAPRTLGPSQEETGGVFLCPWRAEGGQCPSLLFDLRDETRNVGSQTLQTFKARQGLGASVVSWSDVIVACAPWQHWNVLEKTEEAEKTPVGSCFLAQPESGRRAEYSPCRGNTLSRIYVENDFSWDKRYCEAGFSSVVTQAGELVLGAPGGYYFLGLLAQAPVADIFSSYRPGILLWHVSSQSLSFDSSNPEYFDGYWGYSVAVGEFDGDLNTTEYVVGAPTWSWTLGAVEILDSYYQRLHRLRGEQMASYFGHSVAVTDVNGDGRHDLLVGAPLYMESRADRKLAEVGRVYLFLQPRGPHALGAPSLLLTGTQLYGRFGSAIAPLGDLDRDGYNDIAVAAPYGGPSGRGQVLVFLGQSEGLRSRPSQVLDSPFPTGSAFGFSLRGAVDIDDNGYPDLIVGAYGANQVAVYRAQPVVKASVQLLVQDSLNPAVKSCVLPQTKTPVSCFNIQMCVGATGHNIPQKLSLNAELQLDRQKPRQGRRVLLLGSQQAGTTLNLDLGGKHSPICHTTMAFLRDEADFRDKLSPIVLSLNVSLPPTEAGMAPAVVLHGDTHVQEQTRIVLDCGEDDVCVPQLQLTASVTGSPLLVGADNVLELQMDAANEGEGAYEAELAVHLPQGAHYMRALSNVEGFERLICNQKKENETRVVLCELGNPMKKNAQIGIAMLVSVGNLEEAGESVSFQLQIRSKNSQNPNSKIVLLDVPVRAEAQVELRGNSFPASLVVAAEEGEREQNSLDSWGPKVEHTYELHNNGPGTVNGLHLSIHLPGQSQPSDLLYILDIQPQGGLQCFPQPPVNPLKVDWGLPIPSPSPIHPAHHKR
GPIIb/IIIa, sequence (P08514 891-1039 limits assumed): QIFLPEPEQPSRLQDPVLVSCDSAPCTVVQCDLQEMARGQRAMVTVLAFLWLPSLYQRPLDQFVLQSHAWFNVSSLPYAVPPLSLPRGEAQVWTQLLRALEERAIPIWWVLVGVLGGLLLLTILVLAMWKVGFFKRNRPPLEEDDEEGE
GPIIb/IIIa, sequence (P05106 27-788): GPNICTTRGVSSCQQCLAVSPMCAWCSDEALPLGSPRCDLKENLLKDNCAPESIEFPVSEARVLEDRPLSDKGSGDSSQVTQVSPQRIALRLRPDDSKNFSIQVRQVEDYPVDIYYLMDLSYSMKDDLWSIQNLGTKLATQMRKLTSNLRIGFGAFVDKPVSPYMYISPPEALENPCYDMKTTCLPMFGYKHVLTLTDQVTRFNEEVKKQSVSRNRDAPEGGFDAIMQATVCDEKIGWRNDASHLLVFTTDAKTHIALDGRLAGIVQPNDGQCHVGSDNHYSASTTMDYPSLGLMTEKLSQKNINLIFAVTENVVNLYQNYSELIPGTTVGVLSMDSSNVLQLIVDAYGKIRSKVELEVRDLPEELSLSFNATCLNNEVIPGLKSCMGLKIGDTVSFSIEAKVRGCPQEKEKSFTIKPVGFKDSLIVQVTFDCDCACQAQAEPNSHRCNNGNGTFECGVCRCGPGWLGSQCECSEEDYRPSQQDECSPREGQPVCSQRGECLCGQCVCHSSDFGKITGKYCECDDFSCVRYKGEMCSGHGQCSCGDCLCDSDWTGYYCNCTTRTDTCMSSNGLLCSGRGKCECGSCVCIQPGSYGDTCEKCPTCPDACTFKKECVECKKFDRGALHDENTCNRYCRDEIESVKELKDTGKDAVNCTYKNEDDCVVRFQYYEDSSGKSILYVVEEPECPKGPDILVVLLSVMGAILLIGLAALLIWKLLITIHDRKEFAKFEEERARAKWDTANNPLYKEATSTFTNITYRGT

The IC50 is the concentration that inhibits the measured activity by half. In the case of `O=C(O)C[C@H](NC(=O)C1CCCn2c(/C=C/C3CCNCC3)nnc21)c1cnc2ccccc2c1` (stereo partly drawn) [Compound 13, β-[[[5,6,7,8-Tetrahydro-3-[2-(4-piperidinyl)E-ethylene]-1,2,4-tiazolo[4,3-a]pyridin-8-yl]carbonyl]amino]-βS-3-quinolinylpropanoic acid], on GPIIb/IIIa, the IC50 was 0.44 nM and the inhibition at 50 µM came out at 100%. Also, in the assay on gel-filtered platelets, the midpoint of inhibition, the IC50, lay at 57 nM and the inhibition at 50 µM was 100%.
For `O=C(O)C[C@H](NC(=O)C1CCCn2c(/C=C/C3CCNCC3)nnc21)c1cccnc1` (stereo partly drawn) [Compound 12, β-[[[5,6,7,8-Tetrahydro-3-[2-(4-piperidinyl)E-ethylene]-1,2,4-triazolo[4,3-a]pyridin-8-yl]carbonyl]amino]-βS-3-pyridylpropanoic acid], on GPIIb/IIIa, the half-inhibitory concentration (IC50) was 0.14 nM and the inhibition at 50 µM is 100%. Further, in assay [1], the “Intravenous Dosing Duration (of >50% inhibition of ADP-induced ex vivo platelet aggregation)” value was 150 min and the “Oral Dosing Duration (of >50% inhibition of ADP-induced ex vivo platelet aggregation)” value is given as 360 min. In addition, in the assay on gel-filtered platelets, the IC50 was 30 nM and the inhibition at 50 µM turned out to be 100%.
Regarding `O=C(N[C@@H](CNC(=O)C1CCCn2c(CCC3CCNCC3)nnc21)C(=O)O)OCc1ccccc1` (stereo partly drawn) [Compound 3, β-[[[5,6,7,8-Tetrahydro-3-[2-(4-piperidinyl)ethyl]-1,2,4-triazolo[4,3-a]pyridin-8-yl]carbonyl]amino]-αS-benzyloxycarbonylamino-propanoic acid], at GPIIb/IIIa, the IC50 was found to be 0.48 nM and the inhibition at 50 µM amounted to 100%. For the same molecule, in assay [1], the “Intravenous Dosing Duration (of >50% inhibition of ADP-induced ex vivo platelet aggregation)” value was determined as 120 min and the “Oral Dosing Duration (of >50% inhibition of ADP-induced ex vivo platelet aggregation)” value turned out to be 300 min. Further, in the assay with gel-filtered platelets, inhibition was half-maximal at 68 nM (IC50) and the inhibition at 50 µM turned out to be 100%.
`CCN(CC)C(=O)COC(=O)C[C@H](NC(=O)C1CCCn2c(CCC3CCNCC3)nnc21)c1cccnc1` (stereo partly drawn) [Compound 4, β-[[[5,6,7,8-Tetrahydro-3-[2-(4-piperidinyl)ethyl]-1,2,4-triazolo[4,3-a]pyridin-8-yl]carbonyl]amino]-βS-3-pyridinepropanoic acid 2-(Diethylamino)-2-oxoethyl ester]: the half-inhibitory concentration (IC50) at GPIIb/IIIa was found to be 44.7 nM; in the assay with gel-filtered platelets it was 16400 nM. For the same molecule, the inhibition at 50 µM on GPIIb/IIIa and in the assay with gel-filtered platelets was 100% in each case. For the same molecule, the “Oral Dosing Duration (of >50% inhibition of ADP-induced ex vivo platelet aggregation)” value in assay [1] was under 30 min.
Take `O=C(NC[C@H](NS(=O)(=O)Cc1ccccc1)C(=O)O)C1CCCn2c(/C=C/C3CCNCC3)nnc21` (stereo partly drawn) [Compound 14, β-[[[5,6,7,8-Tetrahydro-3-[2-(4-piperidinyl)E-ethylene]-1,2,4-triazolo[4,3-a]pyridin-8-yl]carbonyl]amino]-αS-benzylsulfonylamino-propanoic acid]: the IC50 at GPIIb/IIIa was 0.51 nM; in the assay with gel-filtered platelets it was 43 nM. In addition, the inhibition at 50 µM at GPIIb/IIIa and with gel-filtered platelets was 100% each time.
On to `O=C(O)CC(NC(=O)C1CCCn2c(CCC3CCNCC3)nnc21)c1ccsc1` (stereo not drawn) [Compound 7, β-[[[5,6,7,8-Tetrahydro-3-[2-(4-piperidinyl)ethyl]-1,2,4-triazolo[4,3-a]pyridin-8-yl]carbonyl]amino]-β-3-thiophenepropanoic acid], for which the IC50 worked out at 0.75 nM on GPIIb/IIIa and 350 nM with gel-filtered platelets. Moreover, the inhibition at 50 µM on GPIIb/IIIa and with gel-filtered platelets was 100% in each case.
With `O=C(O)CC(NC(=O)C1CCCn2c(/C=C/C3CCNCC3)nnc21)c1ccncc1` (stereo not drawn) [Compound 10, β-[[[5,6,7,8-Tetrahydro-3-[2-(4-piperidinyl)E-ethylene]-1,2,4-triazolo[4,3-a]pyridin-8-yl]carbonyl]amino]-β-4-pyridinepropanoic acid], at GPIIb/IIIa, the half-inhibitory concentration (IC50) came out at 0.94 nM and the inhibition at 50 µM came out at 100%. Besides, in the assay with gel-filtered platelets, the IC50 was 180 nM and the inhibition at 50 µM amounted to 100%.
For `Cc1noc(C)c1S(=O)(=O)N[C@@H](CNC(=O)C1CCCn2c(/C=C/C3CCNCC3)nnc21)C(=O)O` (stereo partly drawn) [Compound 11, β-[[[5,6,7,8-Tetrahydro-3-[2-(4-piperidinyl)E-ethylene]-1,2,4-triazolo[4,3-a]pyridin-8-yl]carbonyl]amino]-αS-4-(3,5-dimethylisoxazolyl)sulfonylamino-propanoic acid], at GPIIb/IIIa, the IC50 was found to be 1.1 nM and the inhibition at 50 µM is 100%. In the assay on gel-filtered platelets, the IC50 was found to be 110 nM and the inhibition at 50 µM stood at 100%.
`O=C(NC(CNC(=O)C1CCCn2c(C(F)=CC3CCNCC3)nnc21)C(=O)O)OCc1ccccc1` (stereo not drawn) [Compound 9, β-[[[6,7,8-Tetrahydro-3-[2-(4-piperidinyl)Z-1-fluoroethylene]-1,2,4-triazolo[4,3-a]pyridin-8-yl]carbonyl]amino]-αS-benzyloxycarbonylamino-propanoic acid]: the IC50 at GPIIb/IIIa stood at 1.7 nM; with gel-filtered platelets, 500 nM. Moreover, the inhibition at 50 µM on GPIIb/IIIa and in the assay with gel-filtered platelets was 100% each time.
As for `O=C(O)CCNC(=O)C1CCCn2c(CCC3CCNCC3)nnc21` (stereo not drawn) [Compound 2, β-[[[5,6,7,8-Tetrahydro-3-[2-(4-piperidinyl)ethyl]-1,2,4-triazolo[4,3-a]pyridin-8-yl]carbonyl]amino]-β-propanoic acid], on GPIIb/IIIa, the IC50 is 7.2 nM and the inhibition at 50 µM worked out at 98%. In addition, in the assay on gel-filtered platelets, the IC50 was 1300 nM and the inhibition at 50 µM stood at 98%.
Regarding `O=C(O)C[C@H](NC(=O)c1cccn2c(CCC3CCNCC3)nnc12)c1cccnc1` [Compound 17, β-[[[3-[2-(4-piperidinyl)ethyl]-1,2,4-triazolo[4,3-a]pyridin-8-yl]carbonyl]amino]-βS-3-pyridylpropanoic acid], at GPIIb/IIIa, the half-maximal inhibitory concentration (IC50) is 443 nM and the inhibition at 50 µM stood at 90%. For the same molecule, in the assay on gel-filtered platelets, the IC50 was over 1000 nM.
As to `CC(C)COC(=O)N[C@@H](CNC(=O)C1CCCn2c(/C=C/C3CCNCC3)nnc21)C(=O)O` (stereo partly drawn) [Compound 16, β-[[[5,6,7,8-Tetrahydro-3-[2-(4-piperidinyl)E-ethylene]-1,2,4-triazolo[4,3-a]pyridin-8-yl]carbonyl]amino]-αS-isobutyloxycarbonylamino-propanoic acid], the IC50 came out at 0.6 nM at GPIIb/IIIa and 600 nM with gel-filtered platelets. Further, the inhibition at 50 µM on GPIIb/IIIa and in the assay with gel-filtered platelets was 100% each time.
In the case of `CCN(CC)C(=O)COC(=O)[C@H](CNC(=O)C1CCCn2c(CCC3CCNCC3)nnc21)NC(=O)OCc1ccccc1` (stereo partly drawn) [Compound 6, β-[[[5,6,7,8-Tetrahydro-3-[2-(4-piperidinyl)ethyl]-1,2,4-triazolo[4,3-a]pyridin-8-yl]carbonyl]amino]-αS-benzyloxycarbonylamino-propanoic acid 2-(Diethylamino)-2-oxoethyl ester], at GPIIb/IIIa, the half-maximal inhibitory concentration (IC50) turned out to be 8.2 nM and the inhibition at 50 µM was found to be 100%. In addition, in the assay on gel-filtered platelets, the half-maximal inhibitory concentration (IC50) worked out at 1900 nM and the inhibition at 50 µM amounted to 100%.
As to `O=C(Cc1cccnc1)N[C@@H](CNC(=O)C1CCCn2c(/C=C/C3CCNCC3)nnc21)C(=O)O` (stereo partly drawn) [Compound 15, β-[[[5,6,7,8-Tetrahydro-3-[2-(4-piperidinyl)E-ethylene]-1,2,4-triazolo[4,3-a]pyridin-8-yl]carbonyl]amino]-αS-3-pyridylacetylamino-propanoicacid], on GPIIb/IIIa, the IC50 is 1.4 nM and the inhibition at 50 µM came to 100%. Further, in the assay with gel-filtered platelets, the IC50 was determined as 120 nM and the inhibition at 50 µM worked out at 100%.
